Laboratory results reported in BindingDB's records for doi:10.1016/j.bmcl.2005.10.013 (Universidad De Santiago De Compostela, 2005).

Columns and labels:
[1] = Noradrenaline induced vasorelaxant activity in intact rat aortic rings
[2] = Inhibition of thrombin-induced platelet aggregation in human

Compound | IC50 [1] | IC50 [2]
COc1cc(OC)cc(-c2cc3ccc(O)cc3oc2=O)c1 [3-(3,5-dimethoxyphenyl)-7-hydroxy-2H-chromen-2-one] | 39.8 µM | 105 µM
Oc1ccc(/C=C/c2cc(O)cc(O)c2)cc1 [5-[(E)-2-(4-hydroxyphenyl)ethenyl]benzene-1,3-diol] | 19.9 µM | 
O=c1oc2c(O)cc(O)cc2cc1-c1cc(O)cc(O)c1 [6,8-dihydroxy-3-(3',5'-dihydroxyphenyl)coumarin] | 95.5 µM | 285 µM
COc1cc(OC)cc(-c2cc3cc(OC)cc(OC)c3oc2=O)c1 [6,8-dimethoxy-3-(3',5'-dimethoxyphenyl)coumarin] | > 100 µM | > 100 µM
O=c1oc2ccc(O)cc2cc1-c1cc(O)cc(O)c1 [6-hydroxy-3-(3',5'-dihydroxyphenyl)coumarin] | 10.6 µM | 30.1 µM
COc1cc(OC)cc(-c2cc3cc(OC)ccc3oc2=O)c1 [6-methoxy-3-(3',5'-dimethoxyphenyl)coumarin] | 42.6 µM | > 25 µM
O=c1oc2cc(O)ccc2cc1-c1cc(O)cc(O)c1 [7-hydroxy-3-(3',5'-dihydroxyphenyl)coumarin] | 38.9 µM | 62.3 µM
COc1cc(OC)cc(-c2cc3ccc(OC)cc3oc2=O)c1 [7-methoxy-3-(3',5'-dimethoxyphenyl)coumarin] | 52.5 µM | > 100 µM
